Experimental findings from ChEMBL document CHEMBL4814006, “Novel amino substituted tetracyclic imidazo[4,5-b]pyridine derivatives: Design, synthesis, antiproliferative activity and DNA/RNA binding study” (Eur J Med Chem, 2021) are described below.

pIC50: −log10 of the molar value. Calls of active or inactive are those of the source. The calls are words filed in the database; no cut-off is given here.

Assay [1] concerns MCF7. Briefly: Antiproliferative activity against human MCF7 cells assessed as inhibition of cell growth incubated for 72 hrs by MTT assay. It is filed as functional, cell-based. The conditions noted are these: MCF7, 72 h.
For assay [2], the system named is NCI-H460. Briefly: Antiproliferative activity against human NCI-H460 cells assessed as inhibition of cell growth incubated for 72 hrs by MTT assay. It is filed as functional, cell-based. The conditions noted are these: NCI-H460, 72 h.
For assay [3], the system named is HCT-116. Nature of the assay: Antiproliferative activity against human HCT-116 cells assessed as inhibition of cell growth incubated for 72 hrs by MTT assay. It counts as functional, cell-based. The conditions noted are these: HCT-116, 72 h.
The subject of assay [4] is HEK293. Briefly: Cytotoxicity against human HEK293 cells assessed as inhibition of cell growth incubated for 72 hrs by MTT assay. It counts as cell-based. The following applies: HEK293, 72 h.
In assay [5] the test system is Poly(dA-dT)oligonucleotide. Briefly: Binding affinity to poly(dAdT)2 DNA (unknown origin) assessed as ratio of fluorescence intensity of compound-polynucleotide complex to fluorescence intensity of compound in sodium cacodylate buffer at pH 7 by fluorescence spectroscopy based Scatchard method. It is filed as nucleic-acid assay.
Assay [6] relates to Calf thymus DNA. Briefly: Binding affinity to calf thymus DNA assessed as ratio of fluorescence intensity of compound-polynucleotide complex to fluorescence intensity of compound in sodium cacodylate buffer at pH 7 by fluorescence spectroscopy based Scatchard method. The conditions noted are these: Bos taurus.
For assay [7], the system named is Poly(dG-dC)oligonucleotide. Nature of the assay: Binding affinity to poly(dGdC)2 DNA (unknown origin) assessed as ratio of bound compound to polynucleotide phosphate in sodium cacodylate buffer at pH 7 by fluorescence spectroscopy based Scatchard method. It is filed as nucleic-acid assay.
For assay [8], the system named is Quadruplex DNA. Nature of the assay: Binding affinity to human Tel22 G quadruplex DNA assessed as binding constant in sodium cacodylate buffer at pH 7 at binding stoichiometry ratio of 1:1 by fluorescence spectroscopy. It counts as nucleic-acid assay.
The subject of assay [9] is Poly(dA-dT)oligonucleotide. Briefly: Binding affinity to poly(dAdT)2 DNA (unknown origin) assessed as binding constant in sodium cacodylate buffer at pH 7 by fluorescence spectroscopy. It is filed as nucleic-acid assay.
Assay [10] deals with Calf thymus DNA. Briefly: Binding affinity to calf thymus DNA assessed as change in melting temperature in sodium cacodylate buffer at pH 7 at compound:polynucleotide concentration ratio of 0.3 by UV/Vis spectrophotometric analysis. The conditions noted are these: Bos taurus. It is filed as nucleic-acid assay.
The subject of assay [11] is Poly(dA-dU)oligonucleotide. Briefly: Binding affinity to polyA-polyU RNA (unknown origin) assessed as ratio of fluorescence intensity of compound-polynucleotide complex to fluorescence intensity of compound in sodium cacodylate buffer at pH 7 by fluorescence spectroscopy based Scatchard method. It is filed as nucleic-acid assay.
The subject of assay [12] is Quadruplex DNA. Nature of the assay: Binding affinity to human Tel22 G quadruplex DNA assessed as ratio of fluorescence intensity of compound-polynucleotide complex to fluorescence intensity of compound in sodium cacodylate buffer at pH 7 at binding stoichiometry ratio of 1:1 by fluorescence spectroscopy. It is filed as nucleic-acid assay.
For assay [13], the system named is Quadruplex DNA. Nature of the assay: Binding affinity to human Tel22 G quadruplex DNA in sodium cacodylate buffer at pH 7 by CD spectroscopy. It is filed as nucleic-acid assay.
Assay [14] deals with Poly(dG-dC)oligonucleotide. Nature of the assay: Binding affinity to poly(dGdC)2 DNA (unknown origin) assessed as ratio of fluorescence intensity of compound-polynucleotide complex to fluorescence intensity of compound in sodium cacodylate buffer at pH 7 by fluorescence spectroscopy based Scatchard method. It is filed as nucleic-acid assay.
Assay [15] concerns Poly(dA-dU)oligonucleotide. Briefly: Binding affinity to polyA-polyU RNA (unknown origin) assessed as ratio of bound compound to polynucleotide phosphate in sodium cacodylate buffer at pH 7 by fluorescence spectroscopy based Scatchard method. It counts as nucleic-acid assay.
Assay [16] has as its system Calf thymus DNA. Briefly: Binding affinity to calf thymus DNA assessed as binding constant in sodium cacodylate buffer at pH 7 by fluorescence spectroscopy. The following applies: Bos taurus.
The subject of assay [17] is Poly(dA-dT)oligonucleotide. Nature of the assay: Binding affinity to poly(dAdT)2 DNA (unknown origin) assessed as change in melting temperature in sodium cacodylate buffer at pH 7 at compound:polynucleotide concentration ratio of 0.3 by UV/Vis spectrophotometric analysis. It counts as nucleic-acid assay.
The subject of assay [18] is Poly(dA-dT)oligonucleotide. Nature of the assay: Binding affinity to poly(dAdT)2 DNA (unknown origin) assessed as ratio of bound compound to polynucleotide phosphate in sodium cacodylate buffer at pH 7 by fluorescence spectroscopy based Scatchard method. It counts as nucleic-acid assay.
For assay [19], the system named is Poly(dA-dT)oligonucleotide. Nature of the assay: Binding affinity to poly(dAdT)2 DNA (unknown origin) in sodium cacodylate buffer at pH 7 by CD spectroscopy. It counts as nucleic-acid assay.
For assay [20], the system named is Quadruplex DNA. Briefly: Binding affinity to human Tel22 G quadruplex DNA assessed as change in melting temperature in sodium cacodylate buffer at pH 7 by UV/Vis spectrophotometric analysis. It is filed as nucleic-acid assay.
Assay [21] has as its system Poly(dA-dU)oligonucleotide. Nature of the assay: Binding affinity to polyA-polyU RNA (unknown origin) assessed as binding constant in sodium cacodylate buffer at pH 7 by fluorescence spectroscopy. It is filed as nucleic-acid assay.
The subject of assay [22] is Poly(dG-dC)oligonucleotide. Briefly: Binding affinity to poly(dGdC)2 DNA (unknown origin) assessed as binding constant in sodium cacodylate buffer at pH 7 by fluorescence spectroscopy. It is filed as nucleic-acid assay.
Assay [23] deals with Calf thymus DNA. Nature of the assay: Binding affinity to calf thymus DNA assessed as ratio of bound compound to polynucleotide phosphate in sodium cacodylate buffer at pH 7 by fluorescence spectroscopy based Scatchard analysis. The following applies: Bos taurus.
The subject of assay [24] is Poly(dA-dU)oligonucleotide. Nature of the assay: Binding affinity to polyA-polyU RNA (unknown origin) assessed as change in melting temperature in sodium cacodylate buffer at pH 7 at compound:polynucleotide concentration ratio of 0.3 by UV/vis spectrophotometric analysis. It is filed as nucleic-acid assay.
Assay [25] concerns Poly(dG-dC)oligonucleotide. Briefly: Binding affinity to poly(dGdC)2 DNA (unknown origin) in sodium cacodylate buffer at pH 7 by CD spectroscopy. It is filed as nucleic-acid assay.
The subject of assay [26] is Poly(dA-dU)oligonucleotide. Briefly: Binding affinity to polyA-polyU RNA (unknown origin) in sodium cacodylate buffer at pH 7 by CD spectroscopy. It counts as nucleic-acid assay.

`N#Cc1c(N2CCNCC2)c2ccccc2n2c1nc1ncccc12`: the pIC50 in assay [1] is 5.52; in assay [2], 5.15; in assay [3] it was 5.46.
Turning to `N#Cc1cc2ccc(N3CCNCC3)cc2n2c1nc1ncccc12`, the pIC50 in [1] is 5.51; in [2], 5.15; in [3], 6.05.
The matching figures for `N#Cc1c(N2CCCCC2)c2ccc(N3CCCCC3)cc2n2c1nc1ncccc12`: 5.44, 5.15 and 5.74.
Consider `CN(C)CCCNc1c(C#N)c2nc3cccnc3n2c2ccccc12`, for which the pIC50 is 5.54 in assay [1], 5.74 in assay [4], 5.85 in [2] and 6.05 in [3].
The like results for `CC(C)CNc1ccc2cc(C#N)c3nc4cccnc4n3c2c1` were, in that order, 6.40, 6.30, 6.52 and 6.30.
On to `N#Cc1c(N2CCCCC2)c2ccccc2n2c1nc1ncccc12`, for which the negative-log IC50 (pIC50) in assay [1], in assay [2] and in assay [3] was no more than 4.00 each time.
As to `N#Cc1c(N2CCNCC2)c2ccccc2n2c1nc1cccnc12`, the pIC50 is 5.33 in [1], 5.74 in [2] and 5.44 in assay [3].
The like results for `N#Cc1cc2ccc(F)cc2n2c1nc1cccnc12` were, in that order, no more than 4.00, no more than 4.00 and 5.30.
For `CN(C)CCCNc1ccc2cc(C#N)c3nc4cccnc4n3c2c1`, the Ratio in assay [5] was 0.7; in assay [6], 0.5; in assay [7], 0.2; in assay [11], 0.8; in [12], 0.7; in assay [14], 0.4. For the same compound, the Ratio in assay [15] was 0.1; in assay [18], 0.2; in [23], 0.6. Further, the log Ks in [8] turned out to be 5.48; in assay [9], 6.9; in assay [16], 5.5; in [21], 6.3; in [22], 5.8. Moreover, the negative logarithm of the IC50 (pIC50) was 6.15 in assay [1], 6.52 in assay [4], 6.40 in assay [2] and 6.40 in assay [3]. For the same compound, the ΔTm worked out at 6.6 °C in [10], 18.2 °C in assay [17], 1.9 °C in assay [20] and 9.5 °C in assay [24]. In addition, the outcome in assay [13], in [19], in [25] and in assay [26] was Active.
As to `CC(C)CNc1ccc2c(NCC(C)C)c(C#N)c3nc4cccnc4n3c2c1`, the pIC50 in [1] is 5.74; in assay [2] it was 5.27; in assay [3] it was 5.52.
Regarding `CN(C)CCCNc1ccc2cc(C#N)c3nc4ncccc4n3c2c1`, the Ratio turned out to be 0.8 in assay [5]; 0.5 in assay [6]; 0.4 in assay [7]; 0.8 in assay [11]; 0.66 in [12]; 0.4 in [14]. The Ratio in assay [15], in [18] and in assay [23] was 0.4 each time. Also, the log Ks came to 5.35 in assay [8]; 6.4 in [9]; 6 in assay [16]; 5.5 in assay [21]; 5.6 in assay [22]. The pIC50 is 4.92 in [1], 5.40 in assay [4], 4.96 in assay [2] and 5.64 in assay [3]. The thermal shift (ΔTm) in assay [10] was 4.2 °C; in [17], 9.9 °C; in assay [20], 2 °C; in assay [24] it was 4.5 °C. In addition, the outcome in assay [13], in assay [19], in assay [25] and in assay [26] was Active.
As for `CC(C)CNc1ccc2c(NCC(C)C)c(C#N)c3nc4ncccc4n3c2c1`, the results for the negative logarithm of the IC50 (pIC50) in [1], in [2] and in assay [3] were 5.70, 5.12 and 5.43, respectively. Further, the outcome in assay [13] was Active.
Turning to `N#Cc1cc2ccc(N3CCNCC3)cc2n2c1nc1cccnc12`, the pIC50 in [1] is 6.40; in assay [4], 6.15; in assay [2], 6.40; in [3], 6.40.
On to `N#Cc1c(Cl)c2ccc(F)cc2n2c1nc1ncccc12`, for which the pIC50 in assay [1] is 5.70; in assay [2], no more than 4.00; in assay [3] it was 5.46.
The like results for `N#Cc1cc2ccc(N3CCCCC3)cc2n2c1nc1cccnc12` were, in that order, 5.52, no more than 4.00 and 5.26.
`N#Cc1c(Cl)c2ccccc2n2c1nc1cccnc12`: the pIC50 in [1] is 5.22; in [2], no more than 4.00; in [3] it was 5.52.
The matching figures for `N#Cc1cc2ccc(F)cc2n2c1nc1ncccc12`: no more than 4.00, no more than 4.00 and no more than 4.00.
On to `N#Cc1c(N2CCCCC2)c2ccc(N3CCCCC3)cc2n2c1nc1cccnc12`, for which the negative logarithm of the IC50 (pIC50) in assay [1] is 6.30; in assay [4], less than 4.00; in assay [2], no more than 4.00; in assay [3], 6.00.
On to `CN(C)CCCNc1c(C#N)c2nc3ncccc3n2c2ccccc12`, for which the negative-log IC50 (pIC50) is 5.49 in assay [1], 5.59 in [4], 5.70 in assay [2] and 6.10 in assay [3].
Turning to `COc1cc([C@@H]2c3cc4c(cc3[C@@H](O[C@@H]3O[C@@H]5CO[C@@H](C)O[C@H]5[C@H](O)[C@H]3O)[C@H]3COC(=O)[C@H]23)OCO4)cc(OC)c1O` [ETOPOSIDE], the negative logarithm of the IC50 (pIC50) was 6.00 in assay [1] and 7.00 in assay [2].
For `CC(C)CNc1c(C#N)c2nc3ncccc3n2c2ccccc12`, the Ratio in [5] was 8.3; in assay [6] it was 2.2; in assay [7], less than 0.1; in assay [11], 7.1; in [12], 4.75; in [14] it was 0.5. For the same compound, the Ratio in assay [15] was 0.1; in assay [18], less than 0.1; in [23], less than 0.1. Besides, the log Ks worked out at 4.69 in assay [8]; 5.1 in assay [9]; 4.5 in [16]; 4.7 in assay [21]; 5.5 in [22]. The pIC50 in assay [1] was 4.85; in assay [4] it was less than 4.00; in assay [2], 4.76; in assay [3], 4.85. Moreover, the shift in melting temperature (ΔTm) is 0 °C in assay [10], 0 °C in [17], 1.4 °C in [20] and 0.6 °C in assay [24]. Besides, the result in [13] and in assay [19] was Active. Besides, the result in assay [25] was inactive.
As to `N#Cc1c(Cl)c2ccc(F)cc2n2c1nc1cccnc12`, the results for the negative-log IC50 (pIC50) in assay [1], in assay [2] and in [3] were 5.70, no more than 4.00 and 5.52, respectively.
The like results for `N#Cc1c(N2CCCCC2)c2ccccc2n2c1nc1cccnc12` were, in that order, 4.80, no more than 4.00 and 4.33.
The matching figures for `N#Cc1cc2ccc(N3CCCCC3)cc2n2c1nc1ncccc12`: 5.30, 4.31 and 5.00.
The matching figures for `CC(C)CNc1ccc2cc(C#N)c3nc4ncccc4n3c2c1`: 5.52, 4.92 and 5.52.
